ChEMBL document CHEMBL3045620, “Trypsin inhibitory potential and microbial transformation of rutin isolated from Citrus sinensis” (Med Chem Res, 2013)

Experiments:
Format in all cases: protein assay
[1] = target: T1, Trypsin (Homo sapiens, UniProt P07477+P07478+P35030); test: Inhibition of trypsin (unknown origin) using BApNA as substrate incubated for 15 min prior to substrate addition measured after 30 min by UV/VIS spectrophotometric analysis
[2] = target: T1, Trypsin; test: Inhibition of trypsin (unknown origin) using BApNA as substrate at 2 mg/ml incubated for 15 min prior to substrate addition measured after 30 min by UV/VIS spectrophotometric analysis
[3] = target: T1, Trypsin; test: Non-competitive inhibition of trypsin (unknown origin) using BApNA as substrate by Lineweaver-Burk/Dixon plot analysis

Row | Compound | IC50 [1] [µM] | inhibition [2] [%] | Ki [3] [µM]
1 | O=S(=O)(F)Cc1ccccc1 [PHENYLMETHYLSULFONYLFLUORIDE] | 110 | 87.4 | 
2 | O=c1c(O)c(-c2ccc(O)c(O)c2)oc2cc(O)cc(O)c12 [QUERCETIN] | 19 | 84.1 | 13.1
3 | C[C@@H]1O[C@@H](OC[C@H]2O[C@@H](Oc3c(-c4ccc(O)c(O)c4)oc4cc(O)cc(O)c4c3=O)[C@H](O)[C@@H](O)[C@@H]2O)[C@H](O)[C@H](O)[C@H]1O [RUTIN] | 16 | 75.2 | 17.5
